Data on 18 molecules can be found in US5550139A, “Serine protease inhibitors” (The Wichita State University, priority 1994, dated 1996).

One data set addresses T1, Proteinase-3 (Homo sapiens, UniProt P24158).
T1 sequence (P24158 28-248 limits assumed): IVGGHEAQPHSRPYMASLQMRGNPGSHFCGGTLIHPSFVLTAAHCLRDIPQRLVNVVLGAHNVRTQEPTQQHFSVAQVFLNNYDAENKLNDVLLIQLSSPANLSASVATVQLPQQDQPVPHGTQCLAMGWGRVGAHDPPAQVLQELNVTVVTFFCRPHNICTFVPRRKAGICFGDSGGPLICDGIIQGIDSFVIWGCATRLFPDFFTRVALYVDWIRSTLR
The experiment in a line: Proteinase-3 inhibition. The conditions noted are these: Table 7. Details: % Proteinase-3 Inhibition: concentration or dose not given beside the values. The class given is biochemical. From the text: (§1) An in vitro assay can be used to screen compounds of the invention for the ability to reduce or inhibit serine proteinase activity. The human leukocyte elastase (HLE), cathepsin G (Cath G), and proteinase-3 assays have each been described (Groutas et al., J. Med. Chem. 32:1607-1611, 1989; Groutas et al., Arch. Biochem. Biophys. 294:144-146, 1992; Kao et al., J. Clin. Invest. 82:1963-1973, 1988, each incorporated by reference herein). The pseudo first-order inactivation rate constants (kobs) were obtained from plots of ln(vt /vo) vs t, and expressed in terms of the apparent second-order inactivation rate constant, kobs /[I] M^-1 s^-1 (Tables 1-7). Tables 1-7 disclose the activity of preferred compounds of the invention as inhibitors of HLE and Cath G. Table 7 discloses the activity of Compounds 4A (C) and 3E (D) as inhibitors of Proteinase-3 activity. Compounds (A) and (B) have been disclosed previously (Groutas et al., Bioorganic and Med. Chem. 1(4):273-277, 1993; Groutas et al., J. Med. Chem. 36:3178, 1993).

The next data set relates to rat. As to the kind of experiment: Overt toxicity in injected rats. In kind it is in vivo. The conditions noted are these: rat peritonitis test, 8 mg/kg i.v. single dose. Here is the method: Inhibitor A or B were each injected twice daily into the tail vein of a rat (8 mg/kg) over a period of three days. Inflammation was not induced in these rats. […] WBC=white blood cells; PMN=polymorphonuclear leukocytes; The elastase assay has been disclosed above.
(§2) Each compound (A-D) was individually injected into the tail vein of a rat in a single dose (8 mg/kg). After injection, peritonitis was induced in the rat by an IP (intraperitoneal) injection of 1 ml of a 0.1% soluble starch solution. After 4 hours, the peritoneal cavity was lavaged with saline in order to determine the number and type of cells responding to peritonitis. Cell numbers were determined by a Coulter counter and cell type (e.g. lymphocytes, neutrophils, macrophages and monocytes) by standard Cytospin and Giemsa staining. Cell number and type was evaluated after IP injection of saline (negative control, no inflammation), starch (positive control, inflammation) or starch with IV injection of an inhibitor (experimental, inflammation). Inhibitors were dissolved in DMSO prior to administration.

The target in data set [1] is T2, human leukocyte elastase (HLE) (Homo sapiens, UniProt P08246).
T2 construct: purchased Elastin Products Co., Owensville, Mo
T2 sequence (P08246 30-247 limits assumed): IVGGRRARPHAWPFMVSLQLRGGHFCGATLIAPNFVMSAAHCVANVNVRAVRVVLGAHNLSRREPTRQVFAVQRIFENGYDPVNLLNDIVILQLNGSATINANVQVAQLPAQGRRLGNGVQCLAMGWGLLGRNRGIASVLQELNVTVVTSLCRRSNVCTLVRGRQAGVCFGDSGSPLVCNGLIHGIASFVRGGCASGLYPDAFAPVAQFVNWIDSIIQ
The experiment in a line: Inactivation of human leukocyte elastase (kobs/[I]). In kind it is biochemical. The conditions noted are these: for HLE % inhibition: Table 1B footnote, [I]/[E] ratio of 200, 10 minute incubation period.
From the text: as §1
XII. Materials: Human leukocyte elastase was purchased from Elastin Products Co., Owensville, Mo.
(§3) Human leukocyte cathepsin G was obtained from Athens Research and Technology, Athens, Ga. Methoxysuccinyl Ala-Ala-Pro-Val p-nitroanilide and methoxysuccinyl Ala-Ala-Pro-Phe p-nitroanilide were purchased from Sigma Chemicals Co., St. Louis, Mo. Baker-analyzed 60-200 mesh silica gel was used for flash chromatography.

Data set [2] has as its system neutrophil diapedesis (peritonitis). As to the kind of experiment: Inhibition of neutrophil diapedesis after experimentally induced (starch) peritonitis. To be noted: 8 mg/kg i.v. single dose; for Total Number of Cells Lavaged at 4 Hours, Lymphocytes / Total Number of Cells Lavaged at 4 Hours, Macrophages Monocytes / Total Number of Cells Lavaged at 4 Hours, Neutrophils / Total Number of Cells Lavaged at 4 Hours, Total Cells / Abdominal Lavage Cell Distribution, Lymphocytes / Abdominal Lavage Cell Distribution, Macrophages Monocytes / Abdominal Lavage Cell Distribution, Neutrophils: Experiment 2, starch; for Abdominal Lavage Cell Distribution, Lymphocytes / Abdominal Lavage Cell Distribution, Macrophages Monocytes / Abdominal Lavage Cell Distribution, Neutrophils: 4 hours; for effect on neutrophil diapedesis (in words): rat. The class given is in vivo, rat. Here is the method: as §2

For a further data set, the target named is T3, cathepsin G (Cath G) (Homo sapiens, UniProt P08311).
T3 construct: purchased Athens Research and Technology, Athens, Ga
T3 sequence (P08311 21-244 limits assumed): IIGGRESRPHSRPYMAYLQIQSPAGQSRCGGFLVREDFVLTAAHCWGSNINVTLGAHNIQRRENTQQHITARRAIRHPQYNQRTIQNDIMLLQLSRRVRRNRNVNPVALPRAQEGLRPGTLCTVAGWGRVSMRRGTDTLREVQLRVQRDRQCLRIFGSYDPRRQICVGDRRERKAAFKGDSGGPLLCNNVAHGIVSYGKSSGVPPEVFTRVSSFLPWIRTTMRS
As to the kind of experiment: Inactivation of human leukocyte cathepsin G (kobs/[I]). In kind it is biochemical. To be noted: for time-dependent loss of serine protease activity: FIG. 5, Cath G 1.33 uM, 0.1M HEPES pH 7.5, 10% DMSO; for kinact/KI: pH 7.5. On the procedure:
Human leukocyte cathepsin G (1.33 uM) is incubated with compound 8 (133 uM) (a) or compound 10 (13.3 uM) (b) in 0.1M HEPES buffer, pH 7.5, and 10% DMSO. Aliquots were withdrawn at different time intervals and assayed for enzymatic activity using methoxysuccinyl Ala-Ala-Pro-Phe p-nitroanilide.
Human leukocyte cathepsin G (1.48 μM was incubated with inhibitor 5A (1.48 μM in 0.1M HEPES buffer, pH 7.5, and 1% DMSO. Aliquots were withdrawn at different time intervals and assayed for enzymatic activity using methoxysuccinyl Ala-Ala-Pro-Phe p-nitroanilide.
as §1, §3

Turning to `O=C(CSc1ccccc1)OCN1C(=O)c2ccccc2S1(=O)=O`, the “% Proteinase-3 Inhibition” value on Proteinase-3 was determined as 66%.

Broadly, the kinact/KI is the maximal inactivation rate divided by the concentration that gives half of it. On to `CC(C)C[C@H]1C(=O)N(CS(=O)(=O)c2ccccc2)S(=O)(=O)N1C` [Compound 3E], for which the “toxicity (in words)” value in the data set on rat was “non-toxic”. In addition, in data set [1], the “inhibition of elastase (in words)” value was “an elastase inhibitor”. Further, the kinact/KI in data set [1] (Table 6) worked out at 7580 M⁻¹ s⁻¹. Further, in data set [2], the “Total Number of Cells Lavaged at 4 Hours, Lymphocytes” value is 6.4 × 10^6; the “Total Number of Cells Lavaged at 4 Hours, Macrophages Monocytes” value was 7.7 × 10^6; the “Total Number of Cells Lavaged at 4 Hours, Neutrophils” value is 17.9 × 10^6; the “Total Number of Cells Lavaged at 4 Hours, Total Cells” value is given as 32 × 10^6. Further, in data set [2], the “Abdominal Lavage Cell Distribution, Lymphocytes” value is 20%; the “Abdominal Lavage Cell Distribution, Macrophages Monocytes” value is reported as 24%; the “Abdominal Lavage Cell Distribution, Neutrophils” value was found to be 56%; the “effect on neutrophil diapedesis (in words)” value is on record as “substantially reduced neutrophil diapedesis”.

Take `CC(C)(C)OC(=O)CN1[C@@H](Cc2ccccc2)C(=O)N(CF)S1(=O)=O` [Compound 4A, (S)-4-Benzyl-5(tert-butoxycarbonylmethyl)-2-fluoromethyl-3-oxo-1,2,5-thiadiazolidine 1.1-dioxide]: the kinact/KI in data set [1] (Table 2) turned out to be 490 M⁻¹ s⁻¹. In data set [2], the “Total Number of Cells Lavaged at 4 Hours, Lymphocytes” value is given as 6.5 × 10^6; the “Total Number of Cells Lavaged at 4 Hours, Macrophages Monocytes” value is given as 6.5 × 10^6; the “Total Number of Cells Lavaged at 4 Hours, Neutrophils” value is on record as 41.0 × 10^6; the “Total Number of Cells Lavaged at 4 Hours, Total Cells” value is 54 × 10^6. Moreover, in data set [2], the “Abdominal Lavage Cell Distribution, Lymphocytes” value is reported as 12%; the “Abdominal Lavage Cell Distribution, Macrophages Monocytes” value was 12%; the “Abdominal Lavage Cell Distribution, Neutrophils” value is reported as 76%; the “effect on neutrophil diapedesis (in words)” value is recorded as “did not inhibit neutrophil diapedesis associated with peritonitis”. For the same molecule, the “inhibition of Cath G (in words)” value against cathepsin G (Cath G) is “an inhibitor of Cath G”.

In the case of `O=C1C(Cc2ccccc2)CS(=O)(=O)N1C(CF)S(=O)(=O)c1ccccc1` (centres unmarked) [Compound 8, 4-Benzyl-2-(2-fluoro-1-phenylsulfonylethyl) isothiazolidin-3-one 1,1-dioxide], the kinact/KI worked out at 50 M⁻¹ s⁻¹ in data set [1] (Table 1B) and 420 M⁻¹ s⁻¹ at cathepsin G (Cath G) (Table 1B). For the same molecule, the “time-dependent loss of serine protease activity” value at cathepsin G (Cath G) (inhibitor 133 uM) is “time-dependent loss of serine protease activity”.

For `C[C@H](NC(=O)OCc1ccccc1)C(=O)OCN1C(=O)C(Cc2ccccc2)CS1(=O)=O` (some centres unmarked) [Compound 8B], the kinact/KI in data set [1] (Table 3) turned out to be 50 M⁻¹ s⁻¹; on cathepsin G (Cath G) (Table 3), 2770 M⁻¹ s⁻¹.

As for `O=C(C=CS(=O)(=O)c1ccccc1)OCN1C(=O)C(Cc2ccccc2)CS1(=O)=O` (centres unmarked) [Compound 8C], the values for the second-order inactivation constant (kinact/KI) (in data set [1] (Table 4); at cathepsin G (Cath G) (Table 4)) were 380 M⁻¹ s⁻¹ and 2770 M⁻¹ s⁻¹, respectively.

With `C=C(N1C(=O)C(Cc2ccccc2)CS1(=O)=O)S(=O)(=O)c1ccccc1` (centres unmarked) [Compound 9, 4-Benzyl-2-(1-phenylsulfonylvinyl)isothiazolidin-3-one 1,1-dioxide], the HLE % inhibition in data set [1] turned out to be 20%. For the same molecule, the second-order inactivation constant (kinact/KI) at cathepsin G (Cath G) (Table 1B) amounted to 340 M⁻¹ s⁻¹.

On to `C[C@@H](NC(=O)OCc1ccccc1)C(=O)OCN1C(=O)C(Cc2ccccc2)CS1(=O)=O` (some centres unmarked) [Compound 9B], for which the figures for the kinact/KI (in data set [1] (Table 3); on cathepsin G (Cath G) (Table 3)) were 300 M⁻¹ s⁻¹ and 1820 M⁻¹ s⁻¹, respectively.

On to `O=C1C(Cc2ccccc2)CS(=O)(=O)N1CS(=O)(=O)c1ccccc1` (centres unmarked) [Compound 10, 4-Benzyl-2-(1-phenylsulfonylmethyl)isothiazolidin-3-one 1,1-dioxide], for which the HLE % inhibition in data set [1] amounted to 12%. Moreover, the “time-dependent loss of serine protease activity” value at cathepsin G (Cath G) (inhibitor 13.3 uM) was “time-dependent loss of serine protease activity”. Besides, the kinact/KI at cathepsin G (Cath G) (Table 1B) turned out to be 960 M⁻¹ s⁻¹.

As to `C[C@@H](NC(=O)OC(C)(C)C)C(=O)OCN1C(=O)C(Cc2ccccc2)CS1(=O)=O` (some centres unmarked) [Compound 10B], the kinact/KI in data set [1] (Table 3) was 310 M⁻¹ s⁻¹; on cathepsin G (Cath G) (Table 3) it was 560 M⁻¹ s⁻¹.

Regarding `O=C(CNC(=O)OCc1ccccc1)OCN1C(=O)C(Cc2ccccc2)CS1(=O)=O` (centres unmarked) [Compound 11B], the values for the inactivation efficiency (kinact/KI) (in data set [1] (Table 3); on cathepsin G (Cath G) (Table 3)) were 220 M⁻¹ s⁻¹ and 2680 M⁻¹ s⁻¹, respectively.

Consider `CC(C)CC1C(=O)N(CS(=O)(=O)c2ccccc2)S(=O)(=O)N1Cc1ccccc1` (centres unmarked) [drawing 92 R = benzyl], for which the “% Proteinase-3 Inhibition” value at Proteinase-3 is listed as 86%.

Turning to `CC(C)CC1C(=O)N(CS(=O)(=O)c2ccccc2)S(=O)(=O)N1C` (centres unmarked) [drawing 92 R = methyl], the “% Proteinase-3 Inhibition” value at Proteinase-3 amounted to 84%.

Turning to `CC(C)(C)OC(=O)CN1[C@@H](Cc2ccccc2)C(=O)N(CF)S1(=O)=O` [drawing 93 R = CH2 COOt-BOC], the “% Proteinase-3 Inhibition” value at Proteinase-3 came out at 33%.

Take `O=C1C(Cc2ccccc2)N(Cc2ccccc2)S(=O)(=O)N1CF` (centres unmarked) [drawing 93 R = benzyl]: at Proteinase-3, the “% Proteinase-3 Inhibition” value is recorded as 43%.

For `CN1C(Cc2ccccc2)C(=O)N(CF)S1(=O)=O` (centres unmarked) [drawing 93 R = methyl], the “% Proteinase-3 Inhibition” value on Proteinase-3 came to 55%.

Take `O=C1c2ccccc2S(=O)(=O)N1CF` [drawing 94]: the “% Proteinase-3 Inhibition” value on Proteinase-3 is given as 79%.

In the case of `O=C1C(Cc2ccccc2)CS(=O)(=O)N1CF` (centres unmarked) [drawing 96], the “Proteinase-3 Inhibition (in words)” value on Proteinase-3 is “inactive”.
